pIC50: −log10 of the molar value.
Columns and labels:
EGFR^L858R/T790M/C797S = EGFR^L858R/T790M/C797S (Homo sapiens, UniProt P00533, C797S/L858R/T790M); test: HTRF KinEASE-TK in vitro kinase assay, EGFR L858R/T790M/C797S (LTC); assay type: biochemical; conditions: EGFR L858R/T790M/C797S kinase inhibition
From the text: (§1) The biological activity of compounds described herein can be studied according to standard methods known in the art. Methods can be used to study inhibition of EGFR, including mutant forms of EGFR comprising L858R, T790M, C797S, and/or Del19 mutations, or any combination thereof (e.g., L858R single, double, or triple mutants). Exemplary, non-limiting methods are described herein.
(§2) Assays using an in vitro kinase assay kit (HTRF KinEASE-TK kit) can be used to study the inhibitory activity of compounds described herein with respect to EGFR mutants such as ECFR^L858R, EGFR^L858R/T790M, and EGFR^L858R/T790M/C797S.
(§3) One hundred thirty six compounds were studied using the kinase (EGFR) and BA/F3 assays described herein, with more than 60% of the tested compounds providing IC50<50 nM values in all six assays. Accordingly, compounds of the invention are a new general class of kinase inhibitors, including potent inhibitors of EGFR mutants.
(§4) Exemplary kinase inhibition (Kinase) and anti-proliferation activity (Ba/F3) data are shown in Table 1 for certain compounds of the invention and are categorized according to the below legend.

[1] = target: Ba/F3 EGFR-Del19/T790M/C797S (Homo sapiens, UniProt P00533, T790M/C797S, cells depend on it, form not given); test: Ba/F3 viability assay (CellTiter-Glo), EGFR-Del19/T790M/C797S (DTC); assay type: cell-based; conditions: Ba/F3 EGFR-Del19/T790M/C797S anti-proliferation; read-out: BAF3 DTC IC50
From the text: (§5) Inhibition of cell proliferation can be studied using Ba/F3 viability assays, including the Promega CellTiter-Glo cell viability assay. This assay can be used to study the effect of compounds described herein in the following assays: (1) Ba/F3 Parental; (2) Ba/F3 EGFR-Del19/T790M; (3); Ba/F3 EGFR-Del19/C797S; and (4) Ba/F3 EGFR-Del119/T790M/C797S.
as §3, §4

Ba/F3 EGFR-Del19/C797S = Ba/F3 EGFR-Del19/C797S (Homo sapiens, UniProt P00533, C797S, cells depend on it, form not given); test: Ba/F3 viability assay (CellTiter-Glo), EGFR-Del19/C797S (DC); assay type: cell-based; conditions: Ba/F3 EGFR-Del19/C797S anti-proliferation; read-out: BAF3 DC IC50
From the text: as §5, §3, §4

EGFR^L858R = EGFR^L858R (Homo sapiens, UniProt P00533, L858R); test: HTRF KinEASE-TK in vitro kinase assay, EGFR L858R (L); assay type: biochemical; conditions: EGFR L858R kinase inhibition
Chain of EGFR^L858R (P00533 25-1210 L858R): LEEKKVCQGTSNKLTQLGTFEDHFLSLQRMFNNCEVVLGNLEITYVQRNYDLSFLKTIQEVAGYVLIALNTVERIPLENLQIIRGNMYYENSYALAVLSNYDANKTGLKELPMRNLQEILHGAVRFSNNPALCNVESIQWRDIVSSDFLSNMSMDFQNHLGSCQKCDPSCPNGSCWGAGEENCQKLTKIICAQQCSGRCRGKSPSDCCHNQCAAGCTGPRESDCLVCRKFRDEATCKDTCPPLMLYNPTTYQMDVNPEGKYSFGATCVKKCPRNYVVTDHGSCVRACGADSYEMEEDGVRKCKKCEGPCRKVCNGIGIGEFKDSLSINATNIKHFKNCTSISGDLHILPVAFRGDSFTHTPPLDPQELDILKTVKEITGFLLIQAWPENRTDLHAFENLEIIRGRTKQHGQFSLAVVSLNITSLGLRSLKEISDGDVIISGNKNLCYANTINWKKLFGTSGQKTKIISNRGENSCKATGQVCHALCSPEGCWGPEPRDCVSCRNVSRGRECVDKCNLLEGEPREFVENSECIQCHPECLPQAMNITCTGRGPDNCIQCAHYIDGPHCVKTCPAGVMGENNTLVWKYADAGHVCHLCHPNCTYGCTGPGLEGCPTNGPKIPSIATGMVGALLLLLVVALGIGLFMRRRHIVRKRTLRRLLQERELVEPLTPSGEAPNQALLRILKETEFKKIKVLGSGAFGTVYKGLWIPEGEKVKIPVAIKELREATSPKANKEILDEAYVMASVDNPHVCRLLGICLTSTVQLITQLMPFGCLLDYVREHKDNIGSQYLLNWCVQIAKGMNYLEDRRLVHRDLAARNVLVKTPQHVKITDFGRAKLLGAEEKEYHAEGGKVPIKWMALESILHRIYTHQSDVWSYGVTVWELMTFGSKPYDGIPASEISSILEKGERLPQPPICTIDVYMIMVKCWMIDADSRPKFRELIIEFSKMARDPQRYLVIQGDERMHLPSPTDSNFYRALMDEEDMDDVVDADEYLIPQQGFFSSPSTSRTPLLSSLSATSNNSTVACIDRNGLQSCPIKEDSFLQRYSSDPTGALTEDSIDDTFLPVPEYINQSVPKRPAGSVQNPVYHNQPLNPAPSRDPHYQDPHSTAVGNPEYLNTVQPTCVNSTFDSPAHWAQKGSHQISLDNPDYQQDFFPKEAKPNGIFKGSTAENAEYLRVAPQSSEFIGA
From the text: as §1, §2, §3, §4

Ba/F3 EGFR-Del19/T790M = Ba/F3 EGFR-Del19/T790M (Homo sapiens, UniProt P00533, T790M, cells depend on it, form not given); test: Ba/F3 viability assay (CellTiter-Glo), EGFR-Del19/T790M (DT); assay type: cell-based; conditions: Ba/F3 EGFR-Del19/T790M anti-proliferation; read-out: BAF3 DT IC50
Chain of Ba/F3 EGFR-Del19/T790M (P00533 with tags, fused parts or gaps DEL746-750/T790M, form open): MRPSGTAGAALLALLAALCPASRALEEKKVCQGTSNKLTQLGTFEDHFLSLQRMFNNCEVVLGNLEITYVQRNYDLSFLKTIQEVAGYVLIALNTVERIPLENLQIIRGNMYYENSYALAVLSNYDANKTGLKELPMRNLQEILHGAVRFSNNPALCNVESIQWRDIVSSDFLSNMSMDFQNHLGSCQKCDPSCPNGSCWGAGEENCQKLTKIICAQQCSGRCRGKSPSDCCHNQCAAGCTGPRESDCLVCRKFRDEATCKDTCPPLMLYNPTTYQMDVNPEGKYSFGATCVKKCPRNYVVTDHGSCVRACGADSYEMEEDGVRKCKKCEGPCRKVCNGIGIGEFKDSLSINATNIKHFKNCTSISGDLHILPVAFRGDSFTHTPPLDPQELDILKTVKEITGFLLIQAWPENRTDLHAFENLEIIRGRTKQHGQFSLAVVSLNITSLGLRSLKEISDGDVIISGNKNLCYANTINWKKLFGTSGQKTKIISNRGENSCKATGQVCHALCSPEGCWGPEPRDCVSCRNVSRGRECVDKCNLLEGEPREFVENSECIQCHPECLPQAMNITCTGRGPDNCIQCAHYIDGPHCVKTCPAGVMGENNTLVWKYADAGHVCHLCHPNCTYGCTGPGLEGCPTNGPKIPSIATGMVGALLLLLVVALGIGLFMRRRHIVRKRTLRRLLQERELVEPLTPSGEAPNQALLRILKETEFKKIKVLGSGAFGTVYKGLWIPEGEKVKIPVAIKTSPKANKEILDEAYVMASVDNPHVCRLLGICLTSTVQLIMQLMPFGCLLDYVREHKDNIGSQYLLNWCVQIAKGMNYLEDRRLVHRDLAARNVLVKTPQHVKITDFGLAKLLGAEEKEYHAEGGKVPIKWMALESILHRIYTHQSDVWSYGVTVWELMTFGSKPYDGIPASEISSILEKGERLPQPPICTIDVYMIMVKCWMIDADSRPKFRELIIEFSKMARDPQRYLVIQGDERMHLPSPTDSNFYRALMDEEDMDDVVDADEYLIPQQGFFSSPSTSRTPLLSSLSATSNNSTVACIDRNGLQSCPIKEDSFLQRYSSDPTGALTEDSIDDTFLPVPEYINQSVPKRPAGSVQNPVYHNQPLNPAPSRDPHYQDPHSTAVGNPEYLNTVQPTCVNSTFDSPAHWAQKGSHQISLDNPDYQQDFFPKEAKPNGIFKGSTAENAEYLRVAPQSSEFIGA
From the text: as §5, §3, §4

EGFR^L858R/T790M = EGFR^L858R/T790M (Homo sapiens, UniProt P00533, L858R/T790M); test: HTRF KinEASE-TK in vitro kinase assay, EGFR L858R/T790M (LT); assay type: biochemical; conditions: EGFR L858R/T790M kinase inhibition
Chain of EGFR^L858R/T790M (P00533 25-1210 T790M/L858R): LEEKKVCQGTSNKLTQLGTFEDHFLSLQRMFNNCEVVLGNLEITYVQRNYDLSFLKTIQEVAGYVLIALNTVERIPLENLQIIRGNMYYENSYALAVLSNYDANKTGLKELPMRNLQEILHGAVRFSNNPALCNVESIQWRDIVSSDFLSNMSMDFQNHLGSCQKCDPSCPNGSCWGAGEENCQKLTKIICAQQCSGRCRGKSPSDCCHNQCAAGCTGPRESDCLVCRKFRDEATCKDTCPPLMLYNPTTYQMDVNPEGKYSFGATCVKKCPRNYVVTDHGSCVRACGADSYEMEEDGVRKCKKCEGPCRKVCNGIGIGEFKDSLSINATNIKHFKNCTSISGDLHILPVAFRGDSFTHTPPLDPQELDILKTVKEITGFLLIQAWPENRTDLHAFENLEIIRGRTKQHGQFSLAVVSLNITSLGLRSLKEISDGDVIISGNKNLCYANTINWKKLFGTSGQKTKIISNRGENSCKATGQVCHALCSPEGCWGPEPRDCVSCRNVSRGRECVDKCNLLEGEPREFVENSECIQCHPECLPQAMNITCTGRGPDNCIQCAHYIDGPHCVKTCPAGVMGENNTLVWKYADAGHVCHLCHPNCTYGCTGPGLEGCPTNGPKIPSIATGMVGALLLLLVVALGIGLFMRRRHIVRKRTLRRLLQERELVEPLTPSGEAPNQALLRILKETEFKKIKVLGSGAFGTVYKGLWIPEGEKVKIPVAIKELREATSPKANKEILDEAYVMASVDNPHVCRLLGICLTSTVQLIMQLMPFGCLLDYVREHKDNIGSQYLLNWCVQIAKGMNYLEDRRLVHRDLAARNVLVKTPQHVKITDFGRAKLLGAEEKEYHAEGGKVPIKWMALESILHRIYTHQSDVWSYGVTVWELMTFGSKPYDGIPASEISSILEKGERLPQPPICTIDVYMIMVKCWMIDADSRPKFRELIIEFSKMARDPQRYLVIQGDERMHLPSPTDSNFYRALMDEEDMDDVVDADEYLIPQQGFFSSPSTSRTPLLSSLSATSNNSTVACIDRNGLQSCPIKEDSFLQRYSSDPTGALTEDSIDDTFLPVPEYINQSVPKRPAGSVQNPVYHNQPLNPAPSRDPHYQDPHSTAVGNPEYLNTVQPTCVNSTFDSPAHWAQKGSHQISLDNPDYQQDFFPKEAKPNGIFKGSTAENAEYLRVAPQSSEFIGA
From the text: as §1, §2, §3, §4

Chain of EGFR^L858R/T790M/C797S (P00533 25-1210 T790M/C797S/L858R): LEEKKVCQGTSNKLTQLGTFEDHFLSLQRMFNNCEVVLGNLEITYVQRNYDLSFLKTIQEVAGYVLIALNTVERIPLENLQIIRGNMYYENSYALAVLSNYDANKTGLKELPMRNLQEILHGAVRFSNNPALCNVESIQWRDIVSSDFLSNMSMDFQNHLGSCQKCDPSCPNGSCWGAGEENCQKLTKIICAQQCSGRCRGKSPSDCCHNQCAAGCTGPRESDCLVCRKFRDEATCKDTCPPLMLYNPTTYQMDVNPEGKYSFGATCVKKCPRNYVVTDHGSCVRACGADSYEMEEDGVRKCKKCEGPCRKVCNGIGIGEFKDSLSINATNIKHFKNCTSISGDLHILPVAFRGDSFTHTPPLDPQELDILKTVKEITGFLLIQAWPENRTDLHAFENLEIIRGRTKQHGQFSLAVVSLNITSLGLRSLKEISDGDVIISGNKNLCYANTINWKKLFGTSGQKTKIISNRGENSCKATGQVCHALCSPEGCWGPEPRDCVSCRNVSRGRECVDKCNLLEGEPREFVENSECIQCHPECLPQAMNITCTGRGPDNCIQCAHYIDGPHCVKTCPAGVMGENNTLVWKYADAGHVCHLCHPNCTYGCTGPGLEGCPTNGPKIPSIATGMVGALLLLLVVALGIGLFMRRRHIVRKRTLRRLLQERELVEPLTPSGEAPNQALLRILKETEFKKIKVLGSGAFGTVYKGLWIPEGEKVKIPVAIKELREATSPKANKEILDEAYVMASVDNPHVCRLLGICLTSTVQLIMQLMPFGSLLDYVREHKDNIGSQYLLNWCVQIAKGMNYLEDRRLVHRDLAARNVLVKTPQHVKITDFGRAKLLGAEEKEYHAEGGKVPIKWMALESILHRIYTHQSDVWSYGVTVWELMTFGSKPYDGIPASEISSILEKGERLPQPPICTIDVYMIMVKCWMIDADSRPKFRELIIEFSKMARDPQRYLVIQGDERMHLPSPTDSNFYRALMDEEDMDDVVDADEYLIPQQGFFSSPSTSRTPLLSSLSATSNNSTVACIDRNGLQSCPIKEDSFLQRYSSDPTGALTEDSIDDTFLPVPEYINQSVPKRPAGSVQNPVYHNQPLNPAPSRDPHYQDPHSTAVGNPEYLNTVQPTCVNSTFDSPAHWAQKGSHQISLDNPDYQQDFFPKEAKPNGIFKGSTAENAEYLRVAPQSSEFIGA

SMILES	pIC50 (EGFR^L858R/T790M/C797S)	GI50 [1] [nM]	GI50 (Ba/F3 EGFR-Del19/C797S) [nM]	pIC50 (EGFR^L858R)	GI50 (Ba/F3 EGFR-Del19/T790M) [nM]	pIC50 (EGFR^L858R/T790M)
CC(C)n1cc(-c2cnc3cc2O[C@@H](C)CCOc2c(cnn2C)-c2nccc(n2)N3)c(OCC(F)F)n1 [(15)]	> 7.30	< 50	< 50	> 7.30	< 50	> 7.30
CCOc1nn(C2CCN(C)CC2F)cc1-c1cnc2cc1O[C@@H](C)CCOc1c(cnn1C)-c1nccc(n1)N2 (stereo partly drawn) [(16)]	> 7.30	< 50	< 50	> 7.30	< 50	> 7.30
CCOc1nn(C2CC2)cc1-c1cnc2cc1O[C@@H](C)CCOc1c(cnn1C)-c1nccc(n1)N2 [(18)]	> 7.30	< 50	< 50	> 7.30	< 50	> 7.30
CCOc1nn(C2CC2CN2CCOCC2)cc1-c1cnc2cc1O[C@@H](C)CCOc1c(cnn1C)-c1nccc(n1)N2 (stereo partly drawn) [(20)]	> 7.30	< 50	< 50	> 7.30	< 50	> 7.30
CCOc1nn(CC(F)F)cc1-c1cnc2cc1O[C@@H](C)CCOc1c(cnn1C)-c1nccc(n1)N2 [(29)]	> 7.30	< 50	< 50	> 7.30	< 50	> 7.30
CCOc1nn(C2CC3CCC(C2)O3)cc1-c1cnc2cc1O[C@@H](C)CCOc1c(cnn1C)-c1nccc(n1)N2 (stereo partly drawn) [(30)]	> 7.30	< 50	< 50	> 7.30	< 50	> 7.30
C[C@H]1CCOc2c(cnn2C)-c2nccc(n2)Nc2cc(c(-c3cn(C4CC4)nc3OCC(F)(F)F)cn2)O1 [(32)]	> 7.30	< 50	< 50	> 7.30	< 50	> 7.30
CCOc1nn(C2CC(C)(C)OC(C)(C)C2)cc1-c1cnc2cc1O[C@@H](C)CCOc1c(cnn1C)-c1nccc(n1)N2 [(33)]	> 7.30	< 50	50 to 100	> 7.30	50 to 100	> 7.30
CCOc1nn(-c2ccncc2)cc1-c1cnc2cc1O[C@@H](C)CCOc1c(cnn1C)-c1nccc(n1)N2 [(34)]	> 7.30	< 50	< 50	> 7.30	50 to 100	> 7.30
CCOc1ncc(C)cc1-c1cnc2cc1O[C@@H](C)CCOc1c(cnn1C)-c1nccc(n1)N2 [(35)]	6.00 to 7.00	100 to 1000	≥ 1000	≤ 6.00	100 to 1000	> 7.30
C[C@H]1CCOc2c(cnn2C)-c2nccc(n2)Nc2cc(c(-c3cn(C4CN(C5COC5)C4)nc3OCCF)cn2)O1 [(36)]	> 7.30	< 50	< 50	> 7.30	< 50	> 7.30
CCOc1nn(C2CC3CCC(C2)N3C)cc1-c1cnc2cc1O[C@@H](C)CCOc1c(cnn1C)-c1nccc(n1)N2 (stereo partly drawn) [(37)]	> 7.30	< 50	< 50	> 7.30	< 50	> 7.30
CCOc1nn(C2CCN(C3COC3)CC2)cc1-c1cnc2cc1O[C@@H](C)CCOc1c(cnn1C)-c1nccc(n1)N2 [(40)]	> 7.30	< 50	< 50	> 7.30	< 50	> 7.30
CCCOc1nn(C2CC2)cc1-c1cnc2cc1O[C@@H](C)CCOc1c(cnn1C)-c1nccc(n1)N2 [(42)]	> 7.30	< 50	< 50	> 7.30	< 50	> 7.30
C[C@H]1CCOc2c(cnn2C)-c2nccc(n2)Nc2cc(c(-c3cn(C4CC4)nc3OCCF)cn2)O1 [(43)]	> 7.30	< 50	< 50	> 7.30	< 50	> 7.30
C[C@H]1CCOc2c(cnn2C)-c2nccc(n2)Nc2cc(c(-c3cn(C)cc3OCC(F)(F)F)cn2)O1 [(48), (10S)-5,10-dimethyl-13-[1-methyl-4-(2,2,2-trifluoroethoxy)pyrrol-3-yl]-7,11-dioxa-4,5,15,17,21,22-hexazatetracyclo[16.3.1.1^12,16.0^2,6]tricosa-1(22),2(6),3,12(23),13,15,18,20-octaene]	> 7.30	< 50	< 50	> 7.30	< 50	> 7.30
C[C@H]1CCOc2c(cnn2C)-c2nccc(n2)Nc2cc(c(-c3cn(CCN4CCCC4)nc3OCC(F)(F)F)cn2)O1 [(56)]	> 7.30	< 50	< 50	> 7.30	< 50	> 7.30
CCOC(=O)CN1CCC(n2cc(-c3cnc4cc3O[C@@H](C)CCOc3c(cnn3C)-c3nccc(n3)N4)c(OCC)n2)CC1 [(62)]	> 7.30	< 50	< 50	> 7.30	< 50	> 7.30
C[C@H]1CCOc2c(cnn2C)-c2nccc(n2)Nc2cc(c(Nc3ccn(C)n3)cn2)O1 [(70)]	> 7.30	< 50	< 50	> 7.30	< 50	> 7.30
C[C@H]1CCOc2c(cnn2C)-c2nccc(n2)Nc2cc(c(-c3cc4ccccc4n3C)cn2)O1 [(74)]	6.00 to 7.00	100 to 1000	≥ 1000	≤ 6.00	100 to 1000	6.00 to 7.00

— patent publication US20240150375A1, “MACROCYCLIC COMPOUNDS AND USES THEREOF” (Theseus Pharmaceuticals, Inc., priority 2021, published 2024)
